Assay results published in US20080027042A1, “Novel Aminopyridine Derivatives Having Aurora a Selective Inhibitory Action” (priority 2004, published 2008).

What was measured:
Aurora A = molecular target: T1, Aurora A (Homo sapiens, UniProt O14965); test: Aurora A inhibitory action (33P-ATP kinase assay, Kemptide substrate); assay type: biochemical; conditions: 20 μM ATP, 30° C., 20 minutes
T1 construct: histidine tag (N); made in house; host or cells: Escherichia coli BL21-CodonPlus(DE3)-RIL
T1 sequence (O14965 1-403): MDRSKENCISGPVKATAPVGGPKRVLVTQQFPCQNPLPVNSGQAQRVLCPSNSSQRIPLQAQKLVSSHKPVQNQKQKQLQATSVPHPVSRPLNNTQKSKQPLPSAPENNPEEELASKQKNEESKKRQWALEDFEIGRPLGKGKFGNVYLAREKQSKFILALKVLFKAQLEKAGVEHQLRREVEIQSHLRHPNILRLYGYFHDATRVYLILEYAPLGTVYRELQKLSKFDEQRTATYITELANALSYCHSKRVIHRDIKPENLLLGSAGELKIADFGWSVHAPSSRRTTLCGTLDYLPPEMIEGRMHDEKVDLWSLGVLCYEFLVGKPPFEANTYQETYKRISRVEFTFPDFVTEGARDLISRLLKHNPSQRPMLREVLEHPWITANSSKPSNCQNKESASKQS
Procedure, shortened: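 His-tagged Aurora A expressed in E. coli, Ni-purified; reaction in 50 mM Tris pH 7.4, 15 mM Mg acetate, 0.2 mM EDTA with 100 μM Kemptide, 20 μM ATP plus [γ-33P]ATP, 20 min at 30 °C. Phosphopeptide captured on P81 filters and counted by scintillation; DMSO control.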

Aurora B = molecular target: T2, Aurora B (Homo sapiens, UniProt Q96GD4); test: Aurora B inhibitory action (33P-ATP kinase assay, Kemptide substrate); assay type: biochemical; conditions: 100 μM ATP, 30° C., 20 minutes
T2 construct: histidine tag (N); made in house; host or cells: Escherichia coli BL21-CodonPlus(DE3)-RIL
Procedure, shortened: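 His-tagged Aurora B expressed in E. coli, reacted with 100 μM Kemptide, 100 μM ATP plus [γ-33P]ATP in Tris pH 7.4, 15 mM Mg acetate, 0.2 mM EDTA, 30 °C, 20 min. Peptide captured on P81 filters for scintillation counting; compounds added from DMSO dilutions.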

[1] = tested on: Human cervical cancer cells (HeLa S3); test: Effect by combined use of drugs in cells (with paclitaxel), WST-8 method; assay type: cell-based; conditions: three days
Source text: Method for Judging the Effect by Combined Use of Drugs in Cells
Fetal calf serum (FCS) was purchased from Moregate Biotech, DMEM medium from Invitrogen Corp., paclitaxel (tradename: Taxol) from Sigma-Aldrich, Inc., and WST-8 from Kishida Chemical Co., Ltd.
(§1) Human cervical cancer cells (HeLa S3) were obtained from the American Type Culture Collection (ATCC).
(§2) c) Method of Judging the Effect
Cells were suspended in a DMEM medium containing 10% FCS, and the cell suspension was dispensed to two 96-well plastic plates at a rate of 750 cells/100 microliters per well. The plates were incubated overnight in 5% CO2-95% air at 37° C. A drug was subjected to graded dilution in dimethylsulfoxide and flurther diluted with DMSO or with a DMEM medium containing 10% FCS and also containing 2 nM paclitaxel. Then, the dilutions were each dispensed to one of the plates on which cells had been disseminated, at a rate of 100 microliters per well. The final concentration of paclitaxel at this stage was 1 nM. Also, the concentrations in the case of sole administration of the compound according to the invention were 0.03, 0.1, 0.3, 1 and 3 μM. The plates were incubated for further three days in 5% CO2-95% air at 37° C. Cell growth after incubation was measured by the WST-8 method (H. Tominaga, et al., Anal. Commun., 36, 47-50 (1999)). Here, the WST-8 method refers to a method in which 20 microliters of a WST-8 reagent solution is added to each well, incubation is conducted at 37° C. for 45 minutes, the plate is stirred, and the amount of formazan produced is measured by a colorimetric method to determine the inhibitory rate of the drug. The growth inhibitory effects of paclitaxel and of the compound according to the invention were determined, with the value obtained in sole treatment of DMSO being defined as 0%.

[2] = tested on: Human cervical cancer cells (HeLa S3); test: Cell growth inhibitory effect, WST-8 method; assay type: cell-based; conditions: 72 h, HeLa S3, three days incubation
Source text: Method for Judging the Pharmaceutical Effect Using cells
Fetal calf serum (FCS) was purchased from Moregate Biotech, and DMEM medium was purchased from Invitrogen Corp. WST-8 was purchased from Kishida Chemical Co., Ltd.
as §1, §2
Cells were suspended in a DMEM medium containing 10% FCS, and the cell suspension was dispensed to a 96-well plastic plate at a rate of 750 cells/l 00 microliters per well. The plate was incubated overnight in 5% CO2-95% air at 37° C. A drug was subjected to graded dilution in dimethylsulfoxide and further diluted with a DMEM medium containing 10% FCS. Then, the dilution was dispensed to the plate on which cells had been disseminated, at a rate of 100 microliters per well. The plate was incubated for further three days in 5% CO2-95% air at 37° C. Cell growth after incubation was measured by the WST-8 method (H. Tominaga, et al., Anal. Commun., 36, 47-50 (1999)). Here, the WST-8 method refers to a method in which 20 microliters of a WST-8 reagent solution is added to each well, incubation is conducted at 37° C. for 45 minutes, the plate is stirred, and the amount of formazan produced is measured by a calorimetric method to determine the inhibitory rate of the drug. The concentration for 50% growth inhibition (EC50, IM) of the compound was determined.

T2 sequence (Q96GD4 whole entry): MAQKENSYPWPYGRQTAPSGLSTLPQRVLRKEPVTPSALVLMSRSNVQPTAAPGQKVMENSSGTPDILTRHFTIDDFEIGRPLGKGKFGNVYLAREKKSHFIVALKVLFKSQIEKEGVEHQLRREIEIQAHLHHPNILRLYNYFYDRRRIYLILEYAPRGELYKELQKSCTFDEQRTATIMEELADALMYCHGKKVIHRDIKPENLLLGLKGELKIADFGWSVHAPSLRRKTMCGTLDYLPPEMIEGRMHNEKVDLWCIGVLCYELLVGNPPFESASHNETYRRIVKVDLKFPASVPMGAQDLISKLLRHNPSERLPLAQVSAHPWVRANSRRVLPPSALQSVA

| melting point [°C] | IC50 (Aurora A) [µM] | IC50 (Aurora B) [µM] | IC50 [2] [µM] | Compound | Cell growth inhibitory effect by combined administration of paclitaxel and the compound of Example (%) ([1]; HeLa S3, compound 0.3 μM + paclitaxel 1 nM) | inhibition at 0.3 µM ([1]; Homo sapiens, HeLa S3, 72 h, HeLa S3, compound 0.3 μM alone, read-out: Cell growth inhibitory effect by sole administration of the compound of Example (%)) [%] | Cell growth inhibitory effect by combined administration of paclitaxel and the compound of Example (%) ([1]; HeLa S3, compound 0.1 μM + paclitaxel 1 nM) | inhibition at 0.1 µM ([1]; Homo sapiens, HeLa S3, 72 h, HeLa S3, compound 0.1 μM alone, read-out: Cell growth inhibitory effect by sole administration of the compound of Example (%)) [%] | Cell growth inhibitory effect by combined administration of paclitaxel and the compound of Example (%) ([1]; HeLa S3, compound 0.03 μM + paclitaxel 1 nM) | inhibition at 0.03 µM ([1]; Homo sapiens, HeLa S3, 72 h, HeLa S3, compound 0.03 μM alone, read-out: Cell growth inhibitory effect by sole administration of the compound of Example (%)) [%] | Cell growth inhibitory effect by combined administration of paclitaxel and the compound of Example (%) ([1]; HeLa S3, compound 1.0 μM + paclitaxel 1 nM) | inhibition at 1 µM ([1]; Homo sapiens, HeLa S3, 72 h, HeLa S3, compound 1.0 μM alone, read-out: Cell growth inhibitory effect by sole administration of the compound of Example (%)) [%] |
| --- | --- | --- | --- | --- | --- | --- | --- | --- | --- | --- | --- | --- |
| 160 to 163 | 0.00089 | 1.1 | 2.4 | O=C(c1cccc(C(F)(F)F)c1F)N1CCN(Cc2cncc(Nc3cc[nH]n3)n2)CC1 [Example 44, 6-((4-(2-fluoro-3-(trifluoromethyl)benzoyl)piperazin-1-yl)methyl)-N-1H-pyrazol-3-ylpyrazin-2-amine] | 86.5 | 7.1 | – | – | – | – | – | – |
| – | 0.00088 | 0.4 | 0.4 | Cn1nnnc1-c1cc(CN2CCN(C(=O)c3cccc(Cl)c3F)CC2)nc(Nc2nccs2)c1 [Example 106, 6-((4-(3-chloro-2-fluorobenzoyl)piperazin-1-yl)methyl)-4-(1-methyl-1H-tetrazol-5-yl)-N-thiazol-2-ylpyridin-2-amine] | – | – | 76.7 | 6.1 | – | – | – | – |
| – | 0.00032 | 0.19 | 0.21 | Cn1nnc(-c2cc(CN3CCN(C(=O)c4cccc(Cl)c4F)CC3)nc(Nc3nccs3)c2)n1 [Example 107, 6-((4-(3-chloro-2-fluorobenzoyl)piperazin-1-yl)methyl)-4-(2-methyl-2H-tetrazol-5-yl)-N-thiazol-2-ylpyridin-2-amine] | – | – | – | – | 74.1 | 11.5 | – | – |
| – | 0.00059 | 0.8 | 1.2 | O=C(c1cccc(Cl)c1F)N1CCN(Cc2cc(-c3ncn[nH]3)cc(Nc3nccs3)n2)CC1 [Example 108, 6-((4-(3-chloro-2-fluorobenzoyl)piperazin-1-yl)methyl)-N-thiazol-2-yl-4-(1H-1,2,4-triazol-5-yl)pyridin-2-amine] | – | – | – | – | – | – | 86.4 | 17.2 |
